Reference: patent US7867992B2, “Substituted quinolones” (AiCuris GmbH & Co. KG, priority 2004, dated 2011)
Counter-ions that a name gives are not always drawn. Like-named read-outs stand apart in the source and are kept apart here.

Legend:
[1] = Cytostatic effect on NHDF cells in the anti-HCMV cytopathogenicity test; format: cell-based; conditions: NHDF cells (human prepuce fibroblasts), 6 days incubation, visual assessment, concentration at which no visible cytostatic effects are evident vs untreated cell control
Experimental: (§1) Anti-HCMV (Anti-human Cytomegalovirus) Cytopathogenicity Tests
(§2) The test compounds are employed as 50 millimolar (mM) solutions in dimethyl sulfoxide (DMSO). Ganciclovir®, Foscamet® and Cidofovir® are used as reference compounds. After the addition of 2 μl of the 50, 5, 0.5 and 0.05 mM DMSO stock solutions respectively to 98 μl portions of cell culture medium in row 2 A-H for duplicate determinations, 1:2 dilutions are carried out with 50 μl portions of medium up to row 11 of the 96-well plate. The wells in rows 1 and 12 each contain 50 μl of medium. 150 μl of a suspension of 1×10^4 cells (human prepuce fibroblasts [NHDF]) are then pipetted into each of the wells (row 1=cell control) and, in rows 2-12, a mixture of HCMV-infected and uninfected NHDF cells (M.O.I.=0.001-0.002), i.e. 1-2 infected cells per 1000 uninfected cells. Row 12 (without substance) serves as virus control. The final test concentrations are 250-0.0005 μM. The plates are incubated at 37° C./5% CO2 for 6 days, i.e. until all the cells in the virus controls are infected (100% cytopathogenic effect [CPE]). The wells are then fixed and stained by adding a mixture of formalin and Giemsa's dye (30 minutes), washed with double-distilled water and dried in a drying oven at 50° C. The plates are then assessed visually using an overhead microscope (plaque multiplier from Technomara).
(§3) The following data can be obtained from the test plates: • CC50 (NHDF)=substance concentration in μM at which no visible cytostatic effects on the cells are evident by comparison with the untreated cell control; • EC50 (HCMV)=substance concentration in μM which inhibits the CPE (cytopathic effect) by 50% compared with the untreated virus control; • SI (selectivity index)=CC50 (NHDF)/EC50 (HCMV).

HCMV = assay: Anti-HCMV cytopathogenicity test (CPE inhibition); format: cell-based, human cytomegalovirus; conditions: for EC50: read-out: HCMV EC50; for SI HCMV (selectivity index): SI = CC50 (NHDF)/EC50 (HCMV)
Experimental: as §1, §2, §3

[2] = Human betaherpesvirus 5, 144 h, HCMV-infected NHDF cells, M.O.I. 0.001-0.002, 6 days, 50% inhibition of CPE vs untreated virus control

Row | SMILES | CC50 at 6 days [1] [nM] | EC50 (HCMV; [2]) [nM] | SI HCMV (selectivity index) (HCMV) | EC50 (HCMV; Human betaherpesvirus 5, NHDF, 144 h) [nM]
1 | COc1c(N2C[C@@H](C)N[C@@H](C)C2)c(F)cc2c(=O)c(C(=O)NCc3ccc(Cl)cc3Cl)cn([C@@H]3C[C@@H]3F)c12 (mixture of isomers) [Example 16, N-(2,4-Dichlorobenzyl)-7-[(3RS,5SR)-3,5-dimethylpiperazin-1-yl]-6-fluoro-1-[(1R,2S)-2-fluorocyclopropyl]-8-methoxy-4-oxo-1,4-dihydroquinoline-3-carboxamide] | 7800 | 100 | 78 | –
2 | O=C(NCc1ccc(Cl)cc1Cl)c1cn(C2CC2)c2c(Cl)c(N3CCCN(CCO)CC3)c(F)cc2c1=O [Example 1, 8-Chloro-1-cyclopropyl-N-(2,4-dichlorobenzyl)-6-fluoro-7-[4-(2-hydroxyethyl)-1,4-diazepan-1-yl]-4-oxo-1,4-dihydroquinoline-3-carboxamide] | 2500 | 200 | 12.5 | –
3 | C[C@@H]1CN(c2c(F)cc3c(=O)c(C(=O)NCc4ccc(Cl)cc4Cl)cn(C4CC4)c3c2Cl)C[C@H](C)N1 [Example 5, 8-Chloro-1-cyclopropyl-N-(2,4-dichlorobenzyl)-7-[(3RS,5SR)-3,5-dimethylpipierazin-1-yl]-6-fluoro-4-oxo-1,4-dihydroquinoline-3-carboxamide] | 6000 | 230 | 26 | –
4 | Cc1cc(Cl)ccc1CNC(=O)c1cn(C2CC2)c2c(Cl)c(N3CCN(CCOCCO)CC3)c(F)cc2c1=O [Example 8, 8-Chloro-N-(4-chloro-2-methylbenzyl)-1-cyclopropyl-6-fluoro-7-{4-[2-(2-hydroxyethoxy)ethyl]piperazin-1-yl}-4-oxo-1,4-dihydroquinoline-3-carboxamide] | 7700 | 190 | 41 | –
5 | COc1ccc(CNC(=O)c2cn(C3CC3)c3c(OC)c(N4C[C@@H](C)N[C@@H](C)C4)c(F)cc3c2=O)c(Cl)c1 [Example 22] | 8400 | 380 | 22 | –
6 | COc1c(N2C[C@@H](C)N[C@@H](C)C2)c(F)cc2c(=O)c(C(=O)NCc3ccc(C(F)(F)F)cc3C)cn(C3CC3)c12 [Example 24] | 4700 | 250 | 19 | –
7 | COc1c(N2C[C@@H](C)N[C@@H](C)C2)c(F)cc2c(=O)c(C(=O)NCc3ccc(Cl)cc3Cl)cn(CCF)c12 [Example 28, N-(2,4-Dichlorobenzyl)-7-[(3RS,5RS-3,5-dimethyl)piperazin-1-yl]-6-fluoro-1-(2-fluoroethyl)-8-methoxy-4-oxo-1,4-dihydroquinoline-3-carboxamide hydroformate] | 6100 | 100 | 63 | –
8 | COc1c(N2C[C@@H](C)N[C@@H](C)C2)c(F)cc2c(=O)c(C(=O)NCc3ccc(Cl)cc3Cl)cn([C@H]3C[C@H]3F)c12 [Example 34] | 8400 | 19 | 442 | –
9 | COc1c(N2C[C@@H](C)N[C@@H](C)C2)c(F)cc2c(=O)c(C(=O)NCc3ccc(Cl)cc3Cl)cn(CC(F)F)c12 [Example 35] | 4800 | 36.5 | 138 | –
10 | COc1c(N2C[C@@H](C)N[C@@H](C)C2)c(F)cc2c(=O)c(C(=O)NCc3ccc(Cl)cc3Cl)cn(C3CCC3)c12 [Example 40] | 11000 | 110 | 100 | –
11 | COc1c(N2C[C@@H](C)N[C@@H](C)C2)c(F)cc2c(=O)c(C(=O)NCc3ccc(Cl)cc3Cl)cn([C@@H](C)C(F)(F)F)c12 [Example 45] | 2400 | 77 | 31 | –
12 | COc1c(N2C[C@@H](C)N[C@@H](C)C2)c(F)cc2c(=O)c(C(=O)NCc3ccc(OC(F)(F)F)cc3Cl)cn(CC(F)(F)F)c12 [Example 51] | 5300 | 11 | 482 | –
13 | COc1c(N2C[C@@H](C)N[C@@H](C)C2)c(F)cc2c(=O)c(C(=O)NCc3ccc(OC(F)(F)F)cc3C)cn(CC(F)(F)F)c12 [Example 52, 7-[(3RS,5SR)-3,5-Dimethylpiperazin-1-yl]-6-fluoro-8-methoxy-N-[2-methyl-4-(trifluoromethoxy)benzyl]-4-oxo-1-(2,2,2-trifluoroethyl)-1,4-dihydroquinoline-3-carboxamide] | 7700 | 19 | 405 | –
14 | COc1c(N2C[C@@H](C)N(CC(N)=O)[C@@H](C)C2)c(F)cc2c(=O)c(C(=O)NCc3ccc(Cl)cc3Cl)cn(CC(F)(F)F)c12 [Example 53, {(2RS,6SR)-4-[3-{[(2,4-Dichlorobenzyl)amino]carbonyl}-6-fluoro-8-methoxy-4-oxo-1-(2,2,2-trifluoroethyl)-1,4-dihydroquinolin-7-yl]-2,6-dimethylpiperazin-1-yl}acetamide] | 4300 | 10 | 430 | –
15 | COc1c(N2C[C@@H](C)N(CC(=O)N(C)C)[C@@H](C)C2)c(F)cc2c(=O)c(C(=O)NCc3ccc(Cl)cc3Cl)cn(CC(F)(F)F)c12 [Example 54] | 21000 | 8.5 | 2471 | –
16 | COc1c(N2C[C@@H](C)N(CC(=O)NS(C)(=O)=O)[C@@H](C)C2)c(F)cc2c(=O)c(C(=O)NCc3ccc(OC(F)(F)F)cc3C)cn(CC(F)(F)F)c12 [Example 68] | 24000 | 2 | 12000 | –
17 | COc1c(N2CCN(CCC(N)=O)C(C)C2)c(F)cc2c(=O)c(C(=O)NCc3ccc(Cl)cc3Cl)cn(C3CC3)c12 (stereo not drawn) [Example 74] | 2600 | 92 | 28 | –
18 | COc1c(N2C[C@@H](C)N(C(=O)CN)[C@@H](C)C2)c(F)cc2c(=O)c(C(=O)NCc3ccc(Cl)cc3Cl)cn(C3CC3)c12 [Example 79, 1-Cyclopropyl-N-(2,4-dichlorobenzyl)-6-fluoro-7-[(3RS,5SR)-4-glycyl-3,5-dimethylpiperazin-1-yl]-8-methoxy-4-oxo-1,4-dihydroquinoline-3-carboxamide hydrochloride] | 7700 | – | 145 | 53
19 | COc1c(N2C[C@@H](C)N(C[C@@H](O)CO)[C@@H](C)C2)c(F)cc2c(=O)c(C(=O)NCc3ccc(Cl)cc3Cl)cn(C3CC3)c12 [Example 92] | 5300 | 31 | 171 | –
